Test [1] deals with vasopressin V1 receptor (rat liver plasma membranes) (Rattus norvegicus, UniProt P30560). As to the kind of experiment: Binding Assay to Rat Hepatic V1 Receptors. The conditions noted are these: rat hepatic V1.
Test [2] has as its target T1, rat kidney medullary V2 receptors (Rattus norvegicus, UniProt Q00788).
T1 construct: Medullary tissues from rat kidneys are dissected out; from tissue; host or cells: rat kidney medulla membranes
As to the kind of experiment: Binding Assay to Rat Kidney Medullary V2 Receptors. The conditions noted are these: rat kidney medullary V2. In short, it runs like this:
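Competition binding: [3H]AVP at 0.8 nM, test compounds from 50% DMSO, and membranes from rat kidney medulla, left 120 min on the bench. Filtration then liquid scintillation counting measured bound ligand; 1.0 μM unlabeled ligand set non-specific binding.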

The next test deals with vasopressin V2. As to the kind of experiment: Vasopressin V2 Antagonist Activity in Conscious Hydrated Rats (diuretic effect). It is filed as in vivo, normal Sprague-Dawley rats. The conditions noted are these: AVP 0.4 μg/kg i.p. The protocol: Conscious hydrated rats are treated with compounds under study from 0.1 to 100 mg/kg orally or vehicle. Two to four rats are used for each compound. One hour later, arginine vasopressin (AVP, antidiuretic hormore, ADH) dissolved in peanut oil is administered at 0.4 μg/kg intraperitoneally. Two rats in each test would not receive arginine vasopressin but only the vehicle (peanut oil) to serve as water-loading control. Twenty minutes later each rat is given 30 mL/kg of deionized water orally by gavage and is placed individually in a metabolic cage equipped with a funnel and a graduated glass cylinder to collect urine for four hours. Urine volume is measured and osmolality analyzed by use of a Fiske One-Ten osmometer (Fiske Assoc., Norwood, Mass., USA). Urinary sodium, potassium, and chloride are analyzed by use of ion-specific electrodes in a Beckman E3 (Electrolyte 3) Analyzer. In the following results, […] and decreased osmolality relative to AVP-control indicates activity.

The test system of another test is vasopressin V1. The experiment in a line: Vasopressin V1 Antagonist Activity in Conscious Rats (vasopressin vasopressor response). The test is classed as in vivo, rat (spontaneously hypertensive rats). On the set-up: Average Change: unit not given here. In short, it runs like this:
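Conscious rats had the ventral caudal tail artery cannulated into the lower abdominal aorta under local procaine anesthesia, plus a caudal vein cannula for intravenous dosing. Pulsatile blood pressure was recorded via a Statham P23Db transducer. Vasopressor responses to vasopressin injections were measured before and after compound dosing, with percent antagonism calculated relative to the pre-drug response taken as 100%.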

Where [3] appears, read: 10 mg/kg i.v., VAS 0.01 i.u./kg, 30 min.
Setting [4] is: 10 mg/kg i.v., VAS 0.02 i.u./kg, 30 min.
[5] abbreviates: 20 mg/kg i.v., VAS 0.01 i.u./kg, 60 min.
Where [6] appears, read: 20 mg/kg i.v., VAS 0.01 i.u./kg, 90 min.
Where [7] appears, read: 20 mg/kg i.v., VAS 0.01 i.u./kg, 120 min.
[8] abbreviates: 20 mg/kg i.v., VAS 0.01 i.u./kg, 180 min.
Where [9] appears, read: 20 mg/kg i.v., VAS 0.01 i.u./kg, 240 min.
[10] abbreviates: 20 mg/kg i.v., VAS 0.01 i.u./kg, 300 min.
Setting [11] is: 20 mg/kg i.v., VAS 0.02 i.u./kg, 60 min.
The mark [12] stands for this setting: 20 mg/kg i.v., VAS 0.02 i.u./kg, 90 min.
Setting [13] is: 20 mg/kg i.v., VAS 0.02 i.u./kg, 120 min.
The mark [14] stands for this setting: 20 mg/kg i.v., VAS 0.02 i.u./kg, 180 min.
[15] abbreviates: 20 mg/kg i.v., VAS 0.02 i.u./kg, 240 min.
Where [16] appears, read: 20 mg/kg i.v., VAS 0.02 i.u./kg, 300 min.
Where [17] appears, read: 10 mg/kg i.v., VAS 0.01 i.u./kg, 60 min.
[18] abbreviates: 10 mg/kg i.v., VAS 0.01 i.u./kg, 90 min.
Where [19] appears, read: 10 mg/kg i.v., VAS 0.01 i.u./kg, 120 min.
The mark [20] stands for this setting: 10 mg/kg i.v., VAS 0.01 i.u./kg, 180 min.
Setting [21] is: 10 mg/kg i.v., VAS 0.01 i.u./kg, 240 min.
Where [22] appears, read: 10 mg/kg i.v., VAS 0.01 i.u./kg, 300 min.
Setting [23] is: 10 mg/kg i.v., VAS 0.02 i.u./kg, 60 min.
Where [24] appears, read: 10 mg/kg i.v., VAS 0.02 i.u./kg, 90 min.
The mark [25] stands for this setting: 10 mg/kg i.v., VAS 0.02 i.u./kg, 120 min.
Where [26] appears, read: 10 mg/kg i.v., VAS 0.02 i.u./kg, 180 min.
Where [27] appears, read: 10 mg/kg i.v., VAS 0.02 i.u./kg, 240 min.
Setting [28] is: 10 mg/kg i.v., VAS 0.02 i.u./kg, 300 min.

Here are results for five compounds from patent US5834461A, “Tricyclic benzazepine vasopressin antagonists” (American Cyanamid Company, priority 1997, dated 1998).

T1 sequence (Q00788 whole entry): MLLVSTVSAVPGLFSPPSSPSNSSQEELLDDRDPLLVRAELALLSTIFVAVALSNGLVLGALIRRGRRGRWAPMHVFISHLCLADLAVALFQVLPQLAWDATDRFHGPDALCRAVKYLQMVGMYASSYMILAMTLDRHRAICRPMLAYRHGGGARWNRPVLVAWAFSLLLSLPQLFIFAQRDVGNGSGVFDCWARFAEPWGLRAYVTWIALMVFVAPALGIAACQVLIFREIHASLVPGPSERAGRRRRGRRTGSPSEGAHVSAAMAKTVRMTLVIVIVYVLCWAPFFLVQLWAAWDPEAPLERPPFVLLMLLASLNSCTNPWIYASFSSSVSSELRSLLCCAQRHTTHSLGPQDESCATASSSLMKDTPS
Chain of vasopressin V1 receptor (rat liver plasma membranes) (P30560 whole entry): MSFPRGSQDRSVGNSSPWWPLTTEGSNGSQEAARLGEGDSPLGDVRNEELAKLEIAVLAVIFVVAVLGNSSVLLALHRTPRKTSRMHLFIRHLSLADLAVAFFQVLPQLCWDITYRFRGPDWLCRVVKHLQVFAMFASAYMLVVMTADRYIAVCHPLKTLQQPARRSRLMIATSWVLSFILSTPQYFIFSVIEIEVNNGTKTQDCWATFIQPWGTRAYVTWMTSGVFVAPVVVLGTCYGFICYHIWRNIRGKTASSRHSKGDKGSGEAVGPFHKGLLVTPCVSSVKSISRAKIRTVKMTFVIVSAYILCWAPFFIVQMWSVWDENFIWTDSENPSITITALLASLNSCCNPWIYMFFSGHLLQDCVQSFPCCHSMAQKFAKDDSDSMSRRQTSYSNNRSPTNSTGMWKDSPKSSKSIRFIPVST

`Cc1ccccc1NC(=O)c1ccc(C(=O)N2Cc3ccccc3Cc3ccccc32)cc1` [Example 123, 4-[(6,11-Dihydro-5H-dibenz[b,e]azepin-5-yl)-carbonyl]-N-(2-methylphenyl)benzamide]: the IC50 amounted to 0.043 µM in test [1] and 0.19 µM in test [2]. Further, in the test on vasopressin V2 (10 mg/kg orally), the Osmolality was 1125 mOsm/kg. Further, the “Urine Volume” value in the test on vasopressin V2 (10 mg/kg orally) was 5.8 ml/4 hrs. Moreover, the “Average Change” value in the test with vasopressin V1 (setting [3]) was determined as 17.5; with vasopressin V1 (setting [4]) it was 20; with vasopressin V1 (setting [5]) it was 6; in the test with vasopressin V1 (setting [6]) it was 6; in the test on vasopressin V1 (setting [7]) it was 5; with vasopressin V1 (setting [8]) it was 4. Besides, the “Average Change” value in the test on vasopressin V1 (setting [9]) was 8; with vasopressin V1 (setting [10]), 8; in the test on vasopressin V1 (setting [11]), 6; in the test on vasopressin V1 (setting [12]), 7; in the test on vasopressin V1 (setting [13]), 4.5; with vasopressin V1 (setting [14]), 6.5. Also, the “Average Change” value is 6.5 with vasopressin V1 (setting [15]) and 8 in the test with vasopressin V1 (setting [16]). For the same compound, the Inhibition was found to be 0% in the test with vasopressin V1 (setting [3]); 39% with vasopressin V1 (setting [4]); 66% with vasopressin V1 (setting [5]); 66% in the test on vasopressin V1 (setting [6]); 71% in the test with vasopressin V1 (setting [7]); 77% with vasopressin V1 (setting [8]). Besides, the Inhibition was 54% with vasopressin V1 (setting [9]); 54% in the test on vasopressin V1 (setting [10]); 82% in the test on vasopressin V1 (setting [11]); 79% in the test on vasopressin V1 (setting [12]); 86% with vasopressin V1 (setting [13]); 80% in the test with vasopressin V1 (setting [14]). The Inhibition came out at 80% in the test with vasopressin V1 (setting [15]) and 76% with vasopressin V1 (setting [16]).
As for `Cc1ccccc1C(=O)N(C)c1ccc(C(=O)N2Cc3ccccc3Cc3ccccc32)cc1` [Example 167, N-[4-[ (6,11-Dihydro-5H-dibenz[b,e]azepin-5-yl)carbonyl]phenyl]-N-methyl-2-methylbenzamide], the IC50 in test [1] was 0.51 µM. Also, in test [2], the IC50 came out at 0.43 µM. In addition, in the test with vasopressin V2 (30 mg/kg orally), the Osmolality is on record as 1544 mOsm/kg and the “Urine Volume” value is on record as 2 ml/4 hrs. In addition, in the test on vasopressin V1 (10 mg/kg i.v.), the “MAX % Inhibition” value was 70% and the “Time of max % inhibition” value stood at 180 min.
For the compound `Cc1ccccc1C(=O)Nc1ccc(C(=O)N2CCc3ccccc3-c3ccccc32)cc1` [Example 92, N-[4-[(6,7-Dihydro-5H-dibenz[b,d]azepin-5-yl)-carbonyl]phenyl]-2-methylbenzamide], the IC50 in test [1] was 0.098 µM; in test [2], 0.025 µM. In the test on vasopressin V2 (10 mg/kg orally), this compound had an Osmolality of 679 mOsm/kg. Moreover, the “Urine Volume” value in the test with vasopressin V2 (10 mg/kg orally) is listed as 13.5 ml/4 hrs. For the same compound, the “Average Change” value with vasopressin V1 (setting [3]) is listed as 10.5; in the test on vasopressin V1 (setting [17]), 18; with vasopressin V1 (setting [18]), 17.5; in the test with vasopressin V1 (setting [19]), 19; with vasopressin V1 (setting [20]), 18; in the test with vasopressin V1 (setting [21]), 19. For the same compound, the “Average Change” value in the test with vasopressin V1 (setting [22]) came out at 17.5; with vasopressin V1 (setting [4]), 18.5; in the test with vasopressin V1 (setting [23]) it was 22; in the test with vasopressin V1 (setting [24]) it was 27; in the test on vasopressin V1 (setting [25]), 20.5; with vasopressin V1 (setting [26]), 29.5. For the same compound, the “Average Change” value turned out to be 18 in the test with vasopressin V1 (setting [27]) and 24 in the test on vasopressin V1 (setting [28]). In addition, the Inhibition in the test with vasopressin V1 (setting [3]) came out at 65%; in the test on vasopressin V1 (setting [17]), 40%; in the test on vasopressin V1 (setting [18]) it was 42%; in the test on vasopressin V1 (setting [19]), 37%; with vasopressin V1 (setting [20]) it was 40%; with vasopressin V1 (setting [21]) it was 37%. The Inhibition worked out at 42% in the test on vasopressin V1 (setting [22]); 60% in the test on vasopressin V1 (setting [4]); 53% in the test with vasopressin V1 (setting [23]); 42% in the test with vasopressin V1 (setting [24]); 56% with vasopressin V1 (setting [25]); 37% in the test with vasopressin V1 (setting [26]). The Inhibition in the test with vasopressin V1 (setting [27]) is given as 61%; in the test with vasopressin V1 (setting [28]) it was 48%.
Regarding `Cc1cccc(C(=O)Nc2ccc(C(=O)N3Cc4ccccc4Cc4cc(Cl)ccc43)cc2)c1C` [Example 138, N-[4-[(2-Chloro-6,11-dihydro-5H-dibenz[b,e]azepin-5-yl)carbonyl]phenyl]2,3-dimethylbenzamide], the IC50 in test [1] worked out at 0.046 µM. This compound showed an IC50 in test [2] of 0.051 µM. Moreover, in the test on vasopressin V2 (30 mg/kg orally), the Osmolality is recorded as 380 mOsm/kg and the “Urine Volume” value is given as 13.8 ml/4 hrs. In the test with vasopressin V1 (10 mg/kg i.v.), the “MAX % Inhibition” value came to 88% and the “Time of max % inhibition” value was found to be 60 min.
For the compound `O=C(Nc1ccc(C(=O)N2Cc3ccccc3Cc3ccccc32)cc1)c1ccccc1Cl` [Example 14, N-[4-[(6,11-Dihydro-5H-dibenz[b,e]azepin-5-yl)-carbonyl]phenyl]-2-chlorobenzamide], the figures for the IC50 in test [1] and in test [2] were 0.057 µM and 0.066 µM, respectively. In the test with vasopressin V2 (30 mg/kg orally), the Osmolality was 739 mOsm/kg. For the same compound, in the test on vasopressin V2 (30 mg/kg orally), the “Urine Volume” value was 13.1 ml/4 hrs. Further, the “Average Change” value in the test on vasopressin V1 (setting [3]) amounted to 11; in the test on vasopressin V1 (setting [17]) it was 12; in the test on vasopressin V1 (setting [18]), 13.5; with vasopressin V1 (setting [19]) it was 16; in the test with vasopressin V1 (setting [20]) it was 21.5; in the test with vasopressin V1 (setting [21]), 26.5. Moreover, the “Average Change” value with vasopressin V1 (setting [22]) was 24.5; in the test with vasopressin V1 (setting [4]), 23; in the test on vasopressin V1 (setting [23]), 22; in the test with vasopressin V1 (setting [24]), 29.5; in the test with vasopressin V1 (setting [25]) it was 23.5; in the test on vasopressin V1 (setting [26]), 30.5. The “Average Change” value in the test on vasopressin V1 (setting [27]) came out at 32; in the test with vasopressin V1 (setting [28]), 33. The Inhibition was 51% in the test with vasopressin V1 (setting [3]); 47% in the test on vasopressin V1 (setting [17]); 40% in the test on vasopressin V1 (setting [18]); 29% in the test with vasopressin V1 (setting [19]); 4% in the test on vasopressin V1 (setting [20]); -18% with vasopressin V1 (setting [21]). Moreover, the Inhibition in the test with vasopressin V1 (setting [22]) is -9%; in the test on vasopressin V1 (setting [4]), 56%; with vasopressin V1 (setting [23]) it was 58%; in the test with vasopressin V1 (setting [24]), 43%; with vasopressin V1 (setting [25]), 55%; in the test with vasopressin V1 (setting [26]), 41%. The Inhibition with vasopressin V1 (setting [27]) was 38%; in the test on vasopressin V1 (setting [28]), 37%.
